Laboratory results reported in the supplement of paper PMC13380429.

What was measured:
Conditions in all cases: 72 h
[1] = tested on: Caco-2; test: cell viability relative to DMSO; higher = less toxic
[2] = tested on: Calu-3; test: as above
[3] = tested on: HepG2; test: as above
[4] = tested on: U2OS; test: as above
[5] = tested on: Vero E6; test: as above
[6] = tested on: Caco-2; test: relative viability EC50 (midpoint between 100% and the lowest measured viability); higher = less toxic
[7] = tested on: Calu-3; test: as above
[8] = tested on: HepG2; test: as above
[9] = tested on: U2OS; test: as above
[10] = tested on: Vero E6; test: as above
[11] = tested on: Caco-2; test: drug sensitivity score (DSS) for viability; higher = more toxic; extreme values may be limits of the assay
[12] = tested on: Calu-3; test: as above
[13] = tested on: HepG2; test: as above
[14] = tested on: U2OS; test: as above
[15] = tested on: Vero E6; test: as above

Row | SMILES | cell viability ([1]; 1 nM) [%] | cell viability ([1]; 10 nM) [%] | cell viability ([1]; 100 nM) [%] | cell viability ([1]; 1000 nM) [%] | cell viability ([1]; 10000 nM) [%] | cell viability ([2]; 1 nM) [%] | cell viability ([2]; 10 nM) [%] | cell viability ([2]; 100 nM) [%] | cell viability ([2]; 1000 nM) [%] | cell viability ([2]; 10000 nM) [%] | cell viability ([3]; 1 nM) [%] | cell viability ([3]; 10 nM) [%] | cell viability ([3]; 100 nM) [%] | cell viability ([3]; 1000 nM) [%] | cell viability ([3]; 10000 nM) [%] | cell viability ([4]; 1 nM) [%] | cell viability ([4]; 10 nM) [%] | cell viability ([4]; 100 nM) [%] | cell viability ([4]; 1000 nM) [%] | cell viability ([4]; 10000 nM) [%] | cell viability ([5]; 1 nM) [%] | cell viability ([5]; 10 nM) [%] | cell viability ([5]; 100 nM) [%] | cell viability ([5]; 1000 nM) [%] | cell viability ([5]; 10000 nM) [%] | relative viability EC50 [6] [µM] | relative viability EC50 [7] [µM] | relative viability EC50 [8] [µM] | relative viability EC50 [9] [µM] | relative viability EC50 [10] [µM] | drug sensitivity score [11] | drug sensitivity score [12] | drug sensitivity score [13] | drug sensitivity score [14] | drug sensitivity score [15]
1 | CC[C@H](NC(=O)c1c(C)c(-c2ccccc2)nc2ccccc12)c1ccccc1 | 106 | 98.4 | 101 | 103 | 91.2 | 95.8 | 95.2 | 100 | 96.7 | 87.7 | 99 | 108 | 95.4 | 102 | 93.4 | 104 | 101 | 101 | 98.7 | 102 | 103 | 109 | 102 | 103 | 96.7 | > 10 | > 10 | > 10 | > 10 | > 10 | 0 | 0.2 | 0 | 0 | 0
2 | CN(C)[C@@H]1CCc2[nH]c3ccc(NC(=O)c4ccc(F)cc4)cc3c2C1 | 96 | 103 | 93.5 | 99.3 | 86.6 | 105 | 93.2 | 105 | 110 | 84.2 | 101 | 99.3 | 95.8 | 89.3 | 94.6 | 97.1 | 104 | 91.9 | 101 | 96.1 | 106 | 98.9 | 100 | 96.1 | 97.2 | > 10 | > 10 | > 10 | > 10 | > 10 | 0.2 | 0.1 | 0.1 | 0 | 0
3 | CSc1cc2c(cc1C(F)(F)F)N(C(=O)Nc1cccnc1)CC2 | 103 | 101 | 95.5 | 97.5 | 97.9 | 106 | 83.3 | 93.2 | 91.2 | 107 | 109 | 95.6 | 85 | 99 | 94.7 | 100 | 99.6 | 108 | 98.9 | 101 | 102 | 104 | 96.5 | 102 | 102 | > 10 | > 10 | > 10 | > 10 | > 10 | 0 | 0 | 0 | 0 | 0
4 | C[C@H](Cc1ccc(OCC(=O)O)cc1)NC[C@H](O)c1cccc(Cl)c1 | 98.6 | 89.6 | 105 | 94.8 | 103 | 97.9 | 101 | 103 | 100 | 90.7 | 104 | 111 | 98.4 | 99.8 | 97.7 | 98 | 93.3 | 96 | 102 | 99.8 | 97.6 | 95.9 | 91.7 | 92.3 | 105 | > 10 | > 10 | > 10 | > 10 | > 10 | 0 | 0 | 0 | 0 | 0
5 | C[C@H]1CO[C@@H]2Cn3cc(C(=O)NCc4ccc(F)cc4F)c(=O)c(O)c3C(=O)N12 | 107 | 90.1 | 98 | 98.5 | 81.6 | 109 | 94 | 104 | 95.2 | 92.2 | 104 | 112 | 97.1 | 112 | 56.9 | 95.6 | 92.4 | 99.4 | 92.2 | 88.5 | 88.9 | 99.7 | 94.3 | 97.5 | 89.6 | > 10 | > 10 |  | > 10 | > 10 | 0.6 | 0 | 1.6 | 0 | 0
6 | Cc1ccc(-c2ncc[nH]2)cc1NC(=O)c1ccc(OCc2ccccn2)cc1 | 101 | 101 | 105 | 96.7 | 85.2 | 91 | 97.8 | 96.6 | 89.1 | 101 | 103 | 103 | 97.7 | 96 | 94.7 | 96.5 | 98 | 100 | 97.1 | 99.2 | 100 | 104 | 99.2 | 99.2 | 90 | > 10 | > 10 | > 10 | > 10 | > 10 | 0.5 | 0 | 0 | 0 | 0
